# Laboratory results from the supplement of paper PMC10307832.
# Columns and labels:
# Experiment in all cases: relative viability (nuclei count vs DMSO), 5 days (fraction); higher = more cells survive
# AGI-6780 + Phenformin = compound: O=C(Nc1cccc(C(F)(F)F)c1)Nc1cc(S(=O)(=O)NC2CC2)ccc1-c1ccsc1 [AGI-6780] + N=C(N)NC(=N)NCCc1ccccc1 [Phenformin] (partner 250 µM)
# How it was run: (§1)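 The day after seeding in 1536-well plates, lung cancer cell lines were treated by pin tool with a single drug, or with a fixed anchor-drug dose together with five library-drug doses (not always all listed) in √10 steps. After 5 days, a combined fix-and-stain solution (final 0.05% Triton X-100, 1% formaldehyde, 1 ug/ml Hoechst) was added. Nuclei counted on 4× images gave relative viability as treated counts over vehicle counts, reported as the median of duplicate plates.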
# AGI-6780 + Olaparib = compound: O=C(Nc1cccc(C(F)(F)F)c1)Nc1cc(S(=O)(=O)NC2CC2)ccc1-c1ccsc1 [AGI-6780] + O=C(c1cc(Cc2n[nH]c(=O)c3ccccc23)ccc1F)N1CCN(C(=O)C2CC2)CC1 [Olaparib] (partner 8 µM)
# How it was run: as §1
# AGI-6780 + Trametinib = compound: O=C(Nc1cccc(C(F)(F)F)c1)Nc1cc(S(=O)(=O)NC2CC2)ccc1-c1ccsc1 [AGI-6780] + CC(=O)Nc1cccc(-n2c(=O)n(C3CC3)c(=O)c3c(Nc4ccc(I)cc4F)n(C)c(=O)c(C)c32)c1 [Trametinib] (partner 0.02 µM)
# How it was run: as §1
# AGI-6780 = compound: O=C(Nc1cccc(C(F)(F)F)c1)Nc1cc(S(=O)(=O)NC2CC2)ccc1-c1ccsc1 [AGI-6780]
# How it was run: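 Viability is treated-well nuclei as a fraction of vehicle-well nuclei, reported as the median across plates. Before counting, lung cancer cell lines were kept overnight at 37 °C in 1536-well plates, pinned with five √10-spaced library-drug doses on vehicle-anchored plates, and left 5 days without medium change, then fixed, permeabilised and Hoechst-stained in one step, imaged at 4× and counted by MetaXpress. A plate passed only if control CV was below 25% and at least one doubling occurred.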
Cell Line,relative viability (AGI-6780 + Phenformin; first compound 0.08 µM),relative viability (AGI-6780 + Phenformin; first compound 0.253 µM),relative viability (AGI-6780 + Phenformin; first compound 0.8 µM),relative viability (AGI-6780 + Phenformin; first compound 2.53 µM),relative viability (AGI-6780 + Phenformin; first compound 8 µM),relative viability (AGI-6780 + Olaparib; first compound 0.08 µM),relative viability (AGI-6780 + Olaparib; first compound 0.253 µM),relative viability (AGI-6780 + Olaparib; first compound 0.8 µM),relative viability (AGI-6780 + Olaparib; first compound 2.53 µM),relative viability (AGI-6780 + Olaparib; first compound 8 µM),relative viability (AGI-6780 + Trametinib; first compound 0.08 µM),relative viability (AGI-6780 + Trametinib; first compound 0.253 µM),relative viability (AGI-6780 + Trametinib; first compound 0.8 µM),relative viability (AGI-6780 + Trametinib; first compound 2.53 µM),relative viability (AGI-6780 + Trametinib; first compound 8 µM),relative viability (AGI-6780; 0.08 µM),relative viability (AGI-6780; 0.253 µM),relative viability (AGI-6780; 0.8 µM),relative viability (AGI-6780; 2.53 µM),relative viability (AGI-6780; 8 µM)
NCI-H3122,0.326,0.378,0.421,0.399,0.36,0.608,0.626,0.725,0.706,0.649,0.212,0.261,0.239,0.208,0.329,1,1.03,1.04,1.02,1.07
COR-L 105,0.407,0.461,0.507,0.524,0.539,0.632,0.466,0.707,0.66,0.541,0.465,0.576,0.464,0.397,0.351,0.985,0.943,1,0.881,1.02
NCI-H1792,0.159,0.279,0.195,0.241,0.345,0.266,0.404,0.576,,0.292,0.532,0.332,0.611,,0.483,0.856,1.22,0.946,0.727,0.986
NCI-H2087,0.5,0.502,0.471,0.438,0.492,0.674,0.563,0.524,0.53,0.637,0.253,0.183,0.218,0.213,0.194,1.03,1.18,1.12,1.01,1.12
LC-2-ad,0.623,0.59,0.605,0.54,0.505,0.782,0.707,0.764,0.674,0.727,0.917,0.873,0.931,0.964,0.917,1.02,1.05,1.1,0.96,0.996
HARA,0.402,0.483,0.436,0.324,0.399,0.847,0.945,0.311,0.893,0.83,1.02,0.638,0.685,0.707,0.628,1.04,1.15,1.02,0.942,1.17
NCI-H727,0.62,0.536,0.687,0.563,0.698,0.65,0.757,0.705,0.597,0.66,0.415,0.396,0.372,0.365,0.38,0.988,0.902,1.26,0.885,0.987
